Test results from US9018351B2, “Peptide aptamers against tenascin C” (Industry-Academy Cooperation Foundation, priority 2007, dated 2015).

What was measured:
tenascin C [1] = test: Immunofluorescence on frozen tumor xenograft tissue sections; type: binding, human; details: for staining of U118MG-derived tumor xenograft tissue sections: U118MG glioblastoma xenograft in nude mice, 10 μM biotin-labeled peptide or antibody 1:1000, O/N 4° C.
Method: FIGS. 4A-4C represent immunofluorescence detection for binding of #2 peptide aptamer to U118MG-derived tumor xenograft tissue. Frozen tissue sections were incubated at 4° C. for O/N with anti-tenascin C antibody (1:1000 dilution) (FIG. 4A), anti-β-catenin antibody (1:100 dilution) (FIG. 4B), 10 μM biotin-labeled peptide aptamer (#2) or scrambled peptide (#2 scr) (FIG. 4C). Tissues were counterstained with Hoechst33258. Arrows indicate examples of positively stained cells. Magnification, ×630. Results using a xenograft mouse model with HT-29 colon cancer cells are also shown (FIG. 4D).
A tumor xenograft was established by subcutaneous injection of 2×10^6 HT29 or U118MG cells into one flank of nude mice. When the tumor diameter reached approximately 9-10 mm, the mice were killed, and the tumor tissue was obtained and […] for storage at −80° C. Frozen sections 8-10 μm thick were cut, fixed with 3.7% paraformaldehyde for 15 min at room temperature, and permeabilized with 0.5% Triton X-100 in PBS. The cells were washed and blocked with 10% fetal bovine serum, 10% non fat dry milk and 3% BSA in PBS for 2 hrs at room temperature. They were stained with anti-tenascin C antibody (BC24; Sigma-Aldrich, Saint Louis, Miss., 1:1000 dilution), anti-β-catenin antibody (clone 14; BD Transduction Laboratories, Germany, 1:100 dilution), or biotin-labeled peptide for O/N at 4° C. Secondary FITC-conjugated anti-mouse IgG antibody (Sigma-Aldrich, Saint Louis, Miss., 1:1000 dilution) or TEXAS RED-conjugated streptavidin (Calbiochem, La Jolla, Calif., 1:1000 dilution) was used for 1 hr at room temperature in the dark. Cells were counterstained with Hoechst33258.

[2] = tested on: tenascin C-induced cell rounding; test: Adhesion assay on fibronectin/tenascin C substratum; type: cell-based, human; details: glioblastoma cells on fibronectin/tenascin C substratum, 18 hrs
Method: (§1) FIGS. 6A-6D represent reversion of tenascin-C-induced cell morphology and migration by the peptide aptamer. […] Magnification, ×100. FIG. 6B was the results that numbers of round cell was scored and presented as percentage. Four independent experiments were performed. FIG. 6C represented U118MG migration with #2 peptides or scrambled peptides. The data are representative of three independent experiments. SD, P<0.001 relative to no treated samples. […] Whole cell extract were prepared and with anti-β-catenin antibody. Anti-β-actin was used as control.
Microtiter plates (6-well, Nunc, Roskilde, Denmark) were coated with 1 μg/cm^2 of fibrobectin or fibronectin and tenascin C for overnight at 4° C. The noncoated plastic surface was blocked with 1% heat-inactivated BSA in PBS. Before plating, cells were serum starved for 18 hrs in DMEM and trypsinized. Following soybean trypsin inhibitor treatment (100 μg/ml in PBS), cells were resuspended in serum-free medium and counted by hematocytometer. Approximately 1×10^5 cells were plated in each well and the selected peptide aptamer or scramble peptide was treated for 18 hrs, cells were observed under microscope.

[3] = tested on: tenascin C-induced cell migration, U118MG cells; test: Wound scratch assay; type: cell-based, human; details: serum free medium, 18 hrs
Method: as §1
U118MG cells were grown until they become confluent on a 35 mm dish and were serum starved for 18 hrs in DMEM. A straight line was drawn with a marker on the outer surface of the dish bottom and an artificial wound was made by using a pipet tip. The dish was rinsed and then incubated with the serum free medium in the presence of #2 peptides or #2 scramble peptides. After 18 hrs incubation, cells were counted.

[4] = tested on: endogenously expressed tenascin C in the cultured cell lines; test: Immunocytochemistry of cultured cancer cell lines with biotin-labeled peptide; type: binding, human; details: 1 mM biotin-labeled peptide, 1 hr, room temperature; for staining of SW620 cells: SW620 (medium tenascin C expression)
Method: FIGS. 3A-3C represent binding pattern of the selected peptides to cultured cells. Cultured cells of SW620 (FIG. 3A), U251 (FIG. 3B) and HCT116 (FIG. 3C) were incubated at room temperature for 1 hr with 1 mM of biotin-labeled peptide aptamers (#1, #2), control peptide (NC), or peptide aptamer #2 (1 mM) plus anti-tenascin C antibody (1:1000 dilution). Nuclei were counterstained with Hoechst33258. Arrows indicate examples of positively stained cells. Magnification, ×1000 (FIG. 3A and FIG. 3C), ×630 (FIG. 3B). Cells were grown on coverslips, fixed with 3.7% paraformaldehyde for 15 min at room temperature, and permeabilized with 0.5% Triton X-100 in PBS. They were washed and blocked in 10% normal calf serum, 0.5% gelatin in PBS for 30 min at room temperature. Staining was carried out with biotin-labeled peptide for 1 hr at room temperature. Secondary TEXAS RED-conjugated streptavidin (Calbiochem, La Jolla, Calif., 1:200 dilution) was applied at room temperature for 50 min in the dark. The cells were counterstained with Hoechst33258. The present inventors utilized U251, SW620 and HCT116 cells as model cell lines for high, medium and no expression of tenascin C protein, respectively (FIG. 1). The biotin-labeled peptide aptamers were used to test whether they recognized the endogenously expressed tenascin C in the cultured cell lines. […] There was no signal with the negative peptide or when aptamer was omitted. Since the peptide aptamer #2 have high frequency and observed a higher level of staining, we used it in subsequent work. The level of staining with U251 cells was higher than with SW620 cells, which may reflect a higher level of tenascin C expression.

tenascin C [5] = biological target: T1, tenascin C (Homo sapiens, UniProt P24821); test: Immunofluorescence analysis of lung tissue microarray; type: binding
T1 construct: a tissue microarray prepared with tissues from 52 lung cancer patients; from tissue; host or cells: paraffin-embedded human lung tumor and normal lung tissue (Seoul National University Bundang Hospital)
T1 sequence (P24821 23-2201): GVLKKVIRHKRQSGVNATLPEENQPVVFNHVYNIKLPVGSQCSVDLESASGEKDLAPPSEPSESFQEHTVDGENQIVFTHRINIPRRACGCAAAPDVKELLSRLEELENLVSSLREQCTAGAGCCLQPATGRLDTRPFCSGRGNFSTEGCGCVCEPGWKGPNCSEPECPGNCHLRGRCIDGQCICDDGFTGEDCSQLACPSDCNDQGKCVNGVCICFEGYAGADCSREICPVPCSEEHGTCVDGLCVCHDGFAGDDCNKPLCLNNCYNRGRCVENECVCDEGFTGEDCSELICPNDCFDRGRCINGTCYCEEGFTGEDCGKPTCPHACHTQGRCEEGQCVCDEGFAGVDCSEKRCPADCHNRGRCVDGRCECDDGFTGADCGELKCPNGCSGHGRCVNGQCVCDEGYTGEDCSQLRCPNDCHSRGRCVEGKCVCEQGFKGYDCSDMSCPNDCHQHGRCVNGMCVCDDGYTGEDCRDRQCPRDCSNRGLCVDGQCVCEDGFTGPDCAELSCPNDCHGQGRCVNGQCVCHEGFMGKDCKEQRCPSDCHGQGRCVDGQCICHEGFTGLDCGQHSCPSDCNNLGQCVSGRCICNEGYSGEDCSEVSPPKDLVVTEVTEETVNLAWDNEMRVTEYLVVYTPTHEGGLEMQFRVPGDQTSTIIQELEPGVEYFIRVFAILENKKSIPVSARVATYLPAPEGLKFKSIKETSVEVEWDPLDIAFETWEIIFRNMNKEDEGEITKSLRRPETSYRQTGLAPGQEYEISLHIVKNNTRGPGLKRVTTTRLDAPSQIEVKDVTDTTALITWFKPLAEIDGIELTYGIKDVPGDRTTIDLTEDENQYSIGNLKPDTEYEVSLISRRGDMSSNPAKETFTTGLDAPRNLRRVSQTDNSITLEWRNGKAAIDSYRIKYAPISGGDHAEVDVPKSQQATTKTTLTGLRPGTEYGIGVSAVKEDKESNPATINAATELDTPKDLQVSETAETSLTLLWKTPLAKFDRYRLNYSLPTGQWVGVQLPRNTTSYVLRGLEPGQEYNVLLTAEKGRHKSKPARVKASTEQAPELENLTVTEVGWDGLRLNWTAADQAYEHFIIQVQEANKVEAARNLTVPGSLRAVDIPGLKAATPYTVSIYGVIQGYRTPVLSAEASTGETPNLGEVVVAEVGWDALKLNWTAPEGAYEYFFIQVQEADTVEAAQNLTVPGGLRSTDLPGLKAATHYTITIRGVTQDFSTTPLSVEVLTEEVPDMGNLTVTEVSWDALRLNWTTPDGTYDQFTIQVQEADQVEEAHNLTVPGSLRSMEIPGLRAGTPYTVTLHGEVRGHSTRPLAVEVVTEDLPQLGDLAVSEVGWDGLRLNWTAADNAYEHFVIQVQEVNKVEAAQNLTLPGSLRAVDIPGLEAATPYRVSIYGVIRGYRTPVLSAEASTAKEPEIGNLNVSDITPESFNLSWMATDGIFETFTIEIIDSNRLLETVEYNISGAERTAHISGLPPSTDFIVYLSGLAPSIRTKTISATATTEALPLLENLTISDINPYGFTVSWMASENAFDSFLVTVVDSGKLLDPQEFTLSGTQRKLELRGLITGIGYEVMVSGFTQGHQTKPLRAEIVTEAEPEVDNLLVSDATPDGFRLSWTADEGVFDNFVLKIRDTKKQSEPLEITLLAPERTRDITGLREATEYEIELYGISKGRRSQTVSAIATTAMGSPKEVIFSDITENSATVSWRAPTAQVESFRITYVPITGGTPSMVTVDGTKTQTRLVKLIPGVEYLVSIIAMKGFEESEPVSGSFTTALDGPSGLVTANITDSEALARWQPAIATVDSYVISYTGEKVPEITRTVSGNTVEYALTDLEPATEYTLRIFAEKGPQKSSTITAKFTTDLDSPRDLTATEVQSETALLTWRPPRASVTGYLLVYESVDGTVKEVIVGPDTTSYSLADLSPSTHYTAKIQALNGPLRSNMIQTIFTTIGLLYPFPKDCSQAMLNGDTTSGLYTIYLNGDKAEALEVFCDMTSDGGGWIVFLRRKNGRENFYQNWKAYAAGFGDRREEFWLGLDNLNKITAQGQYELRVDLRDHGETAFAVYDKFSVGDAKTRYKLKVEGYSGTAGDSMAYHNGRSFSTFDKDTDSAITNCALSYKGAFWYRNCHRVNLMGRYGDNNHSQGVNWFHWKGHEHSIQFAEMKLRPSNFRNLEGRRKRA
Method: FIGS. 5A-5D represent detection for binding of peptide aptamer #2 to tumor patient lung tissue. Paraffin-embedded lung tissue from an adenocarcinoma (FIG. 5A), squamous cell carcinoma (FIG. 5B), bronchioloalveolar carcinoma (FIG. 5C) and normal (FIG. 5D) tissue was incubated at 4° C. for O/N with anti-tenascin C antibody (1:1000 dilution) or with biotin-labeled peptide aptamer #2 (10 μM). Tissues were counterstained with Hoechst33258. Magnification, ×630.
The lung tissue microarray was constructed from archived paraffin blocks at Seoul National University Bundang Hospital. It is composed of 36 adenocarcinomas, 15 squamous cell carcinomas, 1 bronchioloalveolar carcinoma, and 1 normal lung. Sections were dewaxed in xylene and rehydrated in graded concentrations of ethanol and distilled water. For antigen retrieval, sections were heated for 20 min in Target Retrieval Solution, Tris/EDTA (pH 9; Dako) using a pressure cooker. Staining was carried out with anti-tenascin C antibody (BC24; Sigma-aldrich, Saint Louis, Mo., 1:1000 dilution) or biotin-labeled peptide for O/N at 4° C. Secondary anti-mouse FITC-conjugated IgG antibody or TEXAS RED-conjugated streptavidin was used for 1 hr at room temperature in the dark. Cells were counterstained with Hoechst33258.

Sequence	staining of U118MG-derived tumor xenograft tissue sections (tenascin C [1])	effect on tenascin C-induced rounding morphology [2]	effect on tenascin C-induced cell migration [3]	staining of SW620 cells [4]	staining of HCT116 cells ([4]; HCT116 (no tenascin C expression))	staining of U251 cells ([4]; U251 (high tenascin C expression))	staining of HT-29 tumor xenograft tissue sections (tenascin C [1]; HT-29 colon cancer xenograft (does not express tenascin C))	staining of normal lung tissue (tenascin C [5]; 1 normal lung, 10 μM biotin-labeled peptide, O/N 4° C.)	staining of lung cancer patient tissues (tenascin C [5]; 52 lung cancer patients, 10 μM biotin-labeled peptide or antibody 1:1000, O/N 4° C.)
VSPKSHLKAHPFGGG [#2 scramble, scrambled form of peptide #2, control, reference compound]	no significant staining	no significant change	No significant reduction in cell migration	–	–	–	–	–	–
FHKPFFPKGSARGGG [peptide aptamer #1]	–	–	–	characteristic staining pattern of spots or long streaks in a polarized region of the plasma membrane	–	–	–	–	–
FHKHKSPALSPVGGG [peptide aptamer #2]	same prominent pattern of staining in the forms of spots and blobs	significant reversion of tenascin C-induced rounding morphology	significantly reduced	characteristic staining pattern of spots or long streaks in a polarized region of the plasma membrane	no signal was detected	stained two distinct areas of the U251 cells	no aptamer signal was detected	No peptide aptamer #2 staining was detected	striking similarity of the staining patterns
